According to ChEMBL document CHEMBL4507291 (2021):

What was measured:
[1] = target: Ribosomal protein S6 kinase alpha-4 (Homo sapiens) (UniProt O75676)
[2] = target: Serine/threonine-protein kinase MARK2 (Homo sapiens) (UniProt Q7KZI7)
[3] = target: T1, Tyrosine-protein kinase ITK/TSK (Homo sapiens) (UniProt Q08881)
T1 sequence (whole entry): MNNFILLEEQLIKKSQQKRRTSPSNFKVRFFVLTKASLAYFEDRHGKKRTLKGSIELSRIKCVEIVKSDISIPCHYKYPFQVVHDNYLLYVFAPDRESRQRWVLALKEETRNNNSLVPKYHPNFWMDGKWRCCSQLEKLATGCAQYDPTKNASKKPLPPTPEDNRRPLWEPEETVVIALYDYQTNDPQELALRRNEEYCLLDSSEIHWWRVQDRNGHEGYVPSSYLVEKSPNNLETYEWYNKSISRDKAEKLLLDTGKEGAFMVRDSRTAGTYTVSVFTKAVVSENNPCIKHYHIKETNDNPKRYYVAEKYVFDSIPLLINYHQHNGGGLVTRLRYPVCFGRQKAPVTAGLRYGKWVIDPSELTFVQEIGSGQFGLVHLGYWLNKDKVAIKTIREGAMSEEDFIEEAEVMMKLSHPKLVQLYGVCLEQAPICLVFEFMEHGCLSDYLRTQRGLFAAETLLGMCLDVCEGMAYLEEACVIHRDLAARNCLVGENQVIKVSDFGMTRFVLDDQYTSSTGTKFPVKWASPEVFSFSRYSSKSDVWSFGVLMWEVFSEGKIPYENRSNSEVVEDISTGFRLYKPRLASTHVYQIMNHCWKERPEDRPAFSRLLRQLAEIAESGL

[4] = test system: Epidermal growth factor receptor (Homo sapiens), P00533 [UNDEFINED MUTATION]
[5] = target: Calcium/calmodulin-dependent protein kinase type II subunit beta (Homo sapiens) (UniProt Q13554)
[6] = target: Ribosomal protein S6 kinase alpha-3 (Homo sapiens) (UniProt P51812)
[7] = target: T2, Serine/threonine-protein kinase 17A (Homo sapiens) (UniProt Q9UEE5)
T2 sequence (whole entry): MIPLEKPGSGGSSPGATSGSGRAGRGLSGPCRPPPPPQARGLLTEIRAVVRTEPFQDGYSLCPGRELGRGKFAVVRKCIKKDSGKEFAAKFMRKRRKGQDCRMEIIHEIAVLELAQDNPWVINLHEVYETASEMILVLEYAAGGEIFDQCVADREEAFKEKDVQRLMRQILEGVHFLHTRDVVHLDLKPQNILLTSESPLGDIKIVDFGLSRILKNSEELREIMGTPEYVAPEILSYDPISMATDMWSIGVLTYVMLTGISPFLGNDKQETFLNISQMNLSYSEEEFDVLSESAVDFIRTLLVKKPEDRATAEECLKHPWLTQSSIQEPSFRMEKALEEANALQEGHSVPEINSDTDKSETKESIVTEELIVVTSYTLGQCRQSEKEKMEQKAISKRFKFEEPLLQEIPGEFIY

[8] = target: Calcium/calmodulin-dependent protein kinase kinase 1 (Homo sapiens) (UniProt Q8N5S9)
[9] = target: Serine/threonine-protein kinase 10 (Homo sapiens) (UniProt O94804)
[10] = target: Dual specificity tyrosine-phosphorylation-regulated kinase 2 (Homo sapiens) (UniProt Q92630)
[11] = target: Cyclin-dependent kinase-like 2 (Homo sapiens) (UniProt Q92772)
[12] = target: Myosin-IIIa (Homo sapiens) (UniProt Q8NEV4)
[13] = target: Mitogen-activated protein kinase 7 (Homo sapiens) (UniProt Q13164)
[14] = target: T3, Myotonin-protein kinase (Homo sapiens) (UniProt Q09013)
T3 sequence (whole entry): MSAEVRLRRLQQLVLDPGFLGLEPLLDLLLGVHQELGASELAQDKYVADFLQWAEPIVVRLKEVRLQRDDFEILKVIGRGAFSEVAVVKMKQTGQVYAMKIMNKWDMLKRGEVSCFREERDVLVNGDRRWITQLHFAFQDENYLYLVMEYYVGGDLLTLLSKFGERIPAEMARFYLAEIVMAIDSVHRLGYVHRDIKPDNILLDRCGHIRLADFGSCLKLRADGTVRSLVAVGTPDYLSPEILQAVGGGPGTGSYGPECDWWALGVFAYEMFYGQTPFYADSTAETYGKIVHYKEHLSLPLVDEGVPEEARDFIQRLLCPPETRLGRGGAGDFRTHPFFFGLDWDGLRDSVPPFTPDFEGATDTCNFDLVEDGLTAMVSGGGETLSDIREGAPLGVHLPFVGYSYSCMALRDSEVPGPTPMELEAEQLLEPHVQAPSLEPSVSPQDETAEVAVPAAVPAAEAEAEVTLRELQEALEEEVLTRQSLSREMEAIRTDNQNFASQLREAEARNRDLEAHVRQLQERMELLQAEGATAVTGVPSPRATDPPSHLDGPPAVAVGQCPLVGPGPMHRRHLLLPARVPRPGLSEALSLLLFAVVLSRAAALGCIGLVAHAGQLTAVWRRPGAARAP

[15] = target: Serine/threonine-protein kinase 24 (Homo sapiens) (UniProt Q9Y6E0)
[16] = target: Cyclin-dependent kinase 14 (Homo sapiens) (UniProt O94921)
[17] = target: Ephrin type-A receptor 4 (Homo sapiens) (UniProt P54764)
[18] = target: Interleukin-1 receptor-associated kinase 1 (Homo sapiens) (UniProt P51617)
[19] = Compound concentration 1000.0 nM
[20] = Compound concentration 100.0 nM

Measured: residual activity

Sequence of Interleukin-1 receptor-associated kinase 1 (Homo sapiens) (P51617 whole entry, looked up): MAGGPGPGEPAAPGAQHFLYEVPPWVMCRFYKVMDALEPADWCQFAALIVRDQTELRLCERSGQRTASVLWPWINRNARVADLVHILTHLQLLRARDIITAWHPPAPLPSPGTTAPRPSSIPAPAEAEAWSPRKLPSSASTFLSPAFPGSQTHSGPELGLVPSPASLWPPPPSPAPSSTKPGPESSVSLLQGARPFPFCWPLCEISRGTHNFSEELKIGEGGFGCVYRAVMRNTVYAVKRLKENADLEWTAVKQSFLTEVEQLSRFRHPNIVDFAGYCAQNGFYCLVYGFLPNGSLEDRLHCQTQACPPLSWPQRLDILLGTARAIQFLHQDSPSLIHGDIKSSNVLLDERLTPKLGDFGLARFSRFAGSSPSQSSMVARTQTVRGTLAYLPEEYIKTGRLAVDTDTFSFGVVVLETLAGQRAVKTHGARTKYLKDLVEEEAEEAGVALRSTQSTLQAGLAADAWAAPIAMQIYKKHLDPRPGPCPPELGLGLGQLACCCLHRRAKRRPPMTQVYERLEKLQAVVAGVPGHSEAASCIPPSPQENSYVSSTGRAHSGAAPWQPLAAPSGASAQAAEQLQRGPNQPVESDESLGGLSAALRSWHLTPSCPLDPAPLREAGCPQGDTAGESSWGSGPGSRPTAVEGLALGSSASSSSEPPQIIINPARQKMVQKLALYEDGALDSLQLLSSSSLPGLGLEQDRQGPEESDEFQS
Sequence of Dual specificity tyrosine-phosphorylation-regulated kinase 2 (Homo sapiens) (Q92630 whole entry): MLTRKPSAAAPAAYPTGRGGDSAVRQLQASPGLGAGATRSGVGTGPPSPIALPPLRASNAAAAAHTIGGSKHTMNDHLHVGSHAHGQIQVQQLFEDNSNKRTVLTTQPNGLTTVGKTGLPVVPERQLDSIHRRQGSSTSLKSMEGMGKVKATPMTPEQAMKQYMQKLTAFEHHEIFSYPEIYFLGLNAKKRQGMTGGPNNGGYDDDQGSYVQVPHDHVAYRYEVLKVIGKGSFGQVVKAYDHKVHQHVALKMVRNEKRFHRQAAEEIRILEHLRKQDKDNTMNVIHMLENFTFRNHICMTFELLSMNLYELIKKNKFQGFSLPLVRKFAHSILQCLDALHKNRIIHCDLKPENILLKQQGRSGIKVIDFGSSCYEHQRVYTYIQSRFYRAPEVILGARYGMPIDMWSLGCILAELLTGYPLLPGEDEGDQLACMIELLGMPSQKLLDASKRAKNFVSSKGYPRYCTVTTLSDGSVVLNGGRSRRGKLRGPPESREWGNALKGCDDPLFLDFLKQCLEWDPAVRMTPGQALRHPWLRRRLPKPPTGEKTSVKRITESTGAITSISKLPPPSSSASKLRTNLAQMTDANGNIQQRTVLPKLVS
Sequence of Calcium/calmodulin-dependent protein kinase kinase 1 (Homo sapiens) (Q8N5S9 whole entry, looked up): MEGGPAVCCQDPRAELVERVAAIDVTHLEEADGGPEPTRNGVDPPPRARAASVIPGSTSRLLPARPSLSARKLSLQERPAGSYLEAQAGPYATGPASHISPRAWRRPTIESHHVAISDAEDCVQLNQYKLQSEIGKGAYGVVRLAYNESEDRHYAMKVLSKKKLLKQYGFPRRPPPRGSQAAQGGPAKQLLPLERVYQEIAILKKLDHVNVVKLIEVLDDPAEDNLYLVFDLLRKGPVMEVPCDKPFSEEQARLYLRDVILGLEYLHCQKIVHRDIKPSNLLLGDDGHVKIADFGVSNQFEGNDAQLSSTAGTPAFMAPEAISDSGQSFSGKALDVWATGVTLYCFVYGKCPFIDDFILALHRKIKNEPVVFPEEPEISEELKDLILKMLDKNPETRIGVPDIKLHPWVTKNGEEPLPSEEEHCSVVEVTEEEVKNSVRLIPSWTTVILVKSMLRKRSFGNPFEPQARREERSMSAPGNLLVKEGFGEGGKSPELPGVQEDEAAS
Sequence of Calcium/calmodulin-dependent protein kinase type II subunit beta (Homo sapiens) (Q13554 whole entry): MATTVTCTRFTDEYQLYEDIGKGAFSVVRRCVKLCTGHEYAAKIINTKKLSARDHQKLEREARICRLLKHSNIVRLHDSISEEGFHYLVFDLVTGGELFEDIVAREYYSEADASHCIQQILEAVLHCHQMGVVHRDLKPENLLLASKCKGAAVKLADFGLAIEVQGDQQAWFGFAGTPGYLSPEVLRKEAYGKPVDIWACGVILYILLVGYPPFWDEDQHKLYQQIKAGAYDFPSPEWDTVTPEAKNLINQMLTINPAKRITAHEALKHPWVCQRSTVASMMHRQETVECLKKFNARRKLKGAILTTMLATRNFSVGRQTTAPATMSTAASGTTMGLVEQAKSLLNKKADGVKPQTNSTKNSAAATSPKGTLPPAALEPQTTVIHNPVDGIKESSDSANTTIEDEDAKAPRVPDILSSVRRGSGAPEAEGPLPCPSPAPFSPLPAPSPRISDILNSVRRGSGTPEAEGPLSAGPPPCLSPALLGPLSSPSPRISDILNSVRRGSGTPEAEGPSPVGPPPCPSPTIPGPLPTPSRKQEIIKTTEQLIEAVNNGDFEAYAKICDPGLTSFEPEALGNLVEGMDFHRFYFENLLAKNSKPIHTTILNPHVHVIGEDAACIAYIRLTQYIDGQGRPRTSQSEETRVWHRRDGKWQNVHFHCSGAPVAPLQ
Sequence of Epidermal growth factor receptor (Homo sapiens), P00533 [UNDEFINED MUTATION] (P00533 whole entry, looked up, change not shown): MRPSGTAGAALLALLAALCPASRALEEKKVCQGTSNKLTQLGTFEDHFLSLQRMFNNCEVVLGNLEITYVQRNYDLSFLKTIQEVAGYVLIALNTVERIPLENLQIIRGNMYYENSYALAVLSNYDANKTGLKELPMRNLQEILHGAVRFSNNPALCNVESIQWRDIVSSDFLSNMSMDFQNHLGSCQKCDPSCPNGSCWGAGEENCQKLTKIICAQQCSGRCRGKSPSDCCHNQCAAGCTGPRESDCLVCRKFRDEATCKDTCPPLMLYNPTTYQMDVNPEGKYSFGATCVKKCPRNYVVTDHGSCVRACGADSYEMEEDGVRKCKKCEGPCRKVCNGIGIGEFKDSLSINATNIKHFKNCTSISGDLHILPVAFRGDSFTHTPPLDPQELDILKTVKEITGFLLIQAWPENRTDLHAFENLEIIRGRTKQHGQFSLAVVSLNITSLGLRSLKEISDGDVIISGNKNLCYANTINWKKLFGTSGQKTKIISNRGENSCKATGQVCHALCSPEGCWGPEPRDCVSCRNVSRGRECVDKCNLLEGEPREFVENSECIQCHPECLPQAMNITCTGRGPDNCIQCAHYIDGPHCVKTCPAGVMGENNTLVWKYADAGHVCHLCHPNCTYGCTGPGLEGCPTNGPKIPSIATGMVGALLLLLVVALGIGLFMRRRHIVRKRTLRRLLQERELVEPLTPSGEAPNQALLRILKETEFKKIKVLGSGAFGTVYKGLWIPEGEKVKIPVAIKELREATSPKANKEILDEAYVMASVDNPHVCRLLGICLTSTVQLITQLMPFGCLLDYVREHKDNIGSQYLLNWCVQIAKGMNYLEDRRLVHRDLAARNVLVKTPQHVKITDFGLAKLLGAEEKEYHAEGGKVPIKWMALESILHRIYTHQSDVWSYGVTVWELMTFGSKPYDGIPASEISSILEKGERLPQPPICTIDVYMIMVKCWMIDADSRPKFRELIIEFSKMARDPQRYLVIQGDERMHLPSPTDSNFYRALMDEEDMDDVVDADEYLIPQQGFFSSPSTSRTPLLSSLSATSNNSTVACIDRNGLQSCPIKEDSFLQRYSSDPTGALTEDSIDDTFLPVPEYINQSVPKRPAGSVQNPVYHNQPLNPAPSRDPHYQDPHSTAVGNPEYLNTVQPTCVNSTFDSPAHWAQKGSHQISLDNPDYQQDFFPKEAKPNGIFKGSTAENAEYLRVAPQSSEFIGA
Sequence of Serine/threonine-protein kinase 10 (Homo sapiens) (O94804 whole entry, looked up): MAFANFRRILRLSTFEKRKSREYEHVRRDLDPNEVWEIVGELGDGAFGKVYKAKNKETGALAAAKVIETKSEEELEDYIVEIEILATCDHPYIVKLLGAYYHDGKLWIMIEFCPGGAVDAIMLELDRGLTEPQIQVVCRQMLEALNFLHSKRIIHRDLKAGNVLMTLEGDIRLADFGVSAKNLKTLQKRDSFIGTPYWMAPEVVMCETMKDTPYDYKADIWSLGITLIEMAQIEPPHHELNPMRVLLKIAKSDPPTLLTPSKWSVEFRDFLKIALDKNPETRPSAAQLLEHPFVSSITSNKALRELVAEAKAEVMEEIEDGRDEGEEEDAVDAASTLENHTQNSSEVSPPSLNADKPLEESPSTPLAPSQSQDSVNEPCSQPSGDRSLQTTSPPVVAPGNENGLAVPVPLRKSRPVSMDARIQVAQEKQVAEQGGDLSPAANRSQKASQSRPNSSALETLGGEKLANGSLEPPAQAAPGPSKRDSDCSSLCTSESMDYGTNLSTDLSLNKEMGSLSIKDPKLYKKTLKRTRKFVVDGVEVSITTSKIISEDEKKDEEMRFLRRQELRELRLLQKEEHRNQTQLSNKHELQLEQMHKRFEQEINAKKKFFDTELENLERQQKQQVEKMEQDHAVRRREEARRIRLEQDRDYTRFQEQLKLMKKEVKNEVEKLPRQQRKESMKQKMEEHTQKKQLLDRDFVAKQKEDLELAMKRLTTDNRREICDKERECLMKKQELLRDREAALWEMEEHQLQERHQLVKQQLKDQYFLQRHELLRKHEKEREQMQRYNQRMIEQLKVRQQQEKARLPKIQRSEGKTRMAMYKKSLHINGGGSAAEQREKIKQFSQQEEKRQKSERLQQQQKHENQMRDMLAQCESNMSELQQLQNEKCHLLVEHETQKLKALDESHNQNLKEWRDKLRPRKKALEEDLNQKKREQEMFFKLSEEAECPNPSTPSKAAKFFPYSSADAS

C[C@@H]1CN(c2cc(-c3nn(C)c4ccc(OC5(C)CC5)cc34)ncn2)C[C@H](C)O1 [MLi-2-NC]
inactive: [1]; [19] 81% | [2]; [19] 89% | [3]; [19] 96% | [4]; [19] 92% | [5]; [19] 96% | [6]; [19] 82% | [7]; [19] 81% | [8]; [19] 80% | [9]; [19] 91% | [10]; [19] 83% | [11]; [19] 100% | [12]; [19] 100% | [13]; [19] 76% | [14]; [19] 100% | [15]; [19] 79% | [16]; [19] 100% | [17]; [19] 100% | [18]; [19] 67%

C[C@@H]1CN(c2cc(-c3n[nH]c4ccc(OC5(C)CC5)cc34)ncn2)C[C@H](C)O1 [MLi-2]
inactive: [1]; [20] 75% | [2]; [20] 100% | [3]; [20] 87% | [4]; [20] 69% | [5]; [20] 100% | [6]; [20] 73% | [7]; [20] 100% | [8]; [20] 100% | [9]; [20] 83% | [10]; [20] 98% | [11]; [20] 100% | [12]; [20] 100% | [13]; [20] 92% | [14]; [20] 85% | [15]; [20] 96% | [16]; [20] 100% | [17]; [20] 89% | [18]; [20] 79%
